In patent publication US20220378046A1, “EFFECTS OF NF-kB SIGNALING INHIBITORS ON BED BUG RESISTANCE TO ORALLY PROVISIONED ENTOMOPATHOGENIC BACTERIA” (South Dakota Board of Regents, priority 2021, published 2022):
Read-outs that look alike come from different tables or passages of the source.

Assays:
Cimex lectularius [1] = test: Three-day survivorship of bed bugs fed P. entomophila alone or combined with NF-kB signaling inhibitors; type: in vivo; conditions: for effect on mortality during P. entomophila infection: 10 μg/mL inhibitor in blood meal with P. entomophila, three days, relative to bacterium alone; for mortality at 10 µg/mL: Cimex lectularius, P. entomophila combined with 10 μg/mL inhibitor in blood meal
Experimental: (§1) For the following non-limiting Examples, the Cincinnati SRL strain of Cimex lectularius was used for the population of bed bugs. This strain was derived from a population of individuals collected by technicians from Sierra Research Laboratories, Inc. (Modesto, Calif.) in 2007 and has been maintained under laboratory conditions since this time. Colonies were maintained at the University of South Dakota in plastic jars containing corrugated cardboard harborages at 28 +/−1° C. and 60-70% relative humidity on a 12:12 photoperiod. The colonies were fed aseptically collected defibrinated rabbit blood (Hemostat Laboratories, Dixon, Calif.) once per week using an artificial membrane system (Hemotek Ltd., Blackburn, United Kingdom).
The effect of the combination treatment of NF-kB signaling inhibitors and bacterial entomopathogens on bed bug resistance to the bacterial entomopathogens was analyzed. To determine if NF-kB signaling inhibitors could reduce resistance to orally provisioned entomopathogenic bacteria, cultures of each bacterium were grown overnight by shaking at room temperature. The following day, cultures of P. entomophila were standardized to an OD600 value of 2.3 (3×10^8 colony forming units/mL) and cultures of B. thuringiensis isralensis were standardized to an OD600 value of 2.2 (7×10^7 colony forming units/mL), based on their overnight growth across replicates. P. entomophila was then further diluted 1:100 in defibrinated rabbit blood, whereas B. thuringiensis israelensis was further diluted 1:50 in defibrinated rabbit blood due to its generally lower virulence. The evaluated inhibitors or DMSO diluent were added to the blood meal containing diluted bacteria to a final concentration of 10 ug/mL. The groups of bed bugs fed DMSO diluent in blood were included as controls. Groups of bed bugs consisting of roughly even numbers of adult male and female bed bugs that had not blood fed for at least seven days were provided access to treated blood meals using the artificial membrane system (Hemotek Ltd.) until fully engorged. Short-term mortality was then monitored over a period of three days. Three independent biological replicates with 10-14 insects per group were carried out and cumulative survival curves were compared using the Gehan-Breslow-Wilcoxon test.

[2] = system: Bacillus thuringiensis israelensis; test: Direct effects of NF-kB signaling inhibitors on growth of B. thuringiensis israelensis cultures (OD600); type: cell-based; conditions: 10 μg/mL; LB medium; shaken overnight at room temperature
Excerpt: (§2) The effects of NF-kB signaling inhibitors were further assessed on growth of bacterial entomopathogen cultures. Two bacterial entomopathogens were used in the present example. The Gram-positive bacterium B. thuringiensis israelensis was obtained from Carolina Biological Supply (Burlington, N.C., USA). This bacterium was investigated due to its potential activity against bed bugs when ingested. The Gram-negative bacterium P. entomophila was obtained from the German Collection of Microorganisms and Cell Cultures (DSMZ, Braunschweig, Germany). Stocks of these bacteria were grown overnight in Luria-Bertani (LB) medium on a shaker at room temperature.
(§3) To determine if the inhibitors had any direct impact on the growth of entomopathogenic bacteria prior to their administration in vivo, cultures of each bacterium were inoculated into LB medium and individual inhibitors were added to the cultures at a final concentration of 10 μg/mL. Cultures containing equal volumes of DMSO diluent served as controls. After shaking overnight at room temperature, growth of bacteria in the presence of inhibitors was quantified by measuring optical density of the cultures at 600 nm (OD600) on a spectrophotomer. OD600 values of cultures containing inhibitors were then normalized to DMSO controls. Three replicates were conducted with each inhibitor and growth was compared to controls (set at 1) using a one-sample t-test.

Pseudomonas entomophila = test: Direct effects of NF-kB signaling inhibitors on growth of P. entomophila cultures (OD600); type: cell-based; conditions: 10 μg/mL; LB medium; shaken overnight at room temperature
Excerpt: as §2, §3

Cimex lectularius [3] = test: Three-day survivorship of bed bugs fed NF-kB signaling inhibitors combined with B. thuringiensis israelensis; type: in vivo; conditions: 10 μg/mL inhibitor in blood meal with bacteria; three days; Gehan-Breslow test p=0.86
Experimental: as §1
The effect of the combination treatment of NF-kB signaling inhibitors and bacterial entomopathogens on bed bug resistance to the bacterial entomopathogens was analyzed. To determine if NF-kB signaling inhibitors could reduce resistance to orally provisioned entomopathogenic bacteria, cultures of each bacterium were grown overnight by shaking at room temperature. […] The evaluated inhibitors or DMSO diluent were added to the blood meal containing diluted bacteria to a final concentration of 10 ug/mL. […] Short-term mortality was then monitored over a period of three days. […]

Cimex lectularius [4] = test: Estimation of P. entomophila load in vivo in bed bugs (CFU/insect); conditions: 10 μg/mL inhibitor with P. entomophila in blood meal, 24 hours post-infection
Experimental: The bacterial load of entomopathogen was further analyzed to determine whether enhanced mortality during P. entomophila infection was associated with increased bacterial load (reduced resistance). For this analysis, adult male bed bugs that had not fed for at least seven days were provided access to blood meals containing P. entomophila with or without 10 μg/mL of IKK16 using the artificial membrane system (Hemotek Ltd.) until fully engorged. The two treatments were prepared as described in Example 3. After 24 hours, live and dead bed bugs from each infected treatment group were collected. Individual insects were surface sterilized by rinsing with 10% bleach and 70% ethanol and homogenized in sterile phosphate buffered saline (PBS). Homogenates were then serial diluted in PBS and plated on LB agar plates to estimate the load of P. entomophila bacteria expressed as colony forming units (CFU) per insect after 24 hours of incubation at 28° C. Because culturable bed bug commensals in the gut are minimal and slow growing, this methodology allows for the specific quantification of P. entomophila. Two independent biological replicates were conducted (15 individual insects examined per treatment group in total). The insects in each treatment were further subdivided into dead and live categories for analysis. […]

Cimex lectularius [5] = test: Toxicity of NF-kB signaling inhibitors fed as lone agents to bed bugs (seven-day survivorship); type: in vivo; conditions: 5 μg/mL or 10 μg/mL in blood meal; 7 days; chi-square test p=0.54
Experimental: as §1
The bed bugs were fed four individual small molecule inhibitors of NF-kB signaling (BMS345541, IKK16, IMD0354, Takinib) alone or in combination with two different bacterial entomopathogens (Pseudomonas entomophila and Bacillus thuringiensis israelensis). […] The effects on both bed bug mortality and bacterial growth were assessed.
The toxicity of NF-kB signaling inhibitors was analyzed by feeding the inhibitors as lone agents to bed bugs. In particular, the four individual small molecule inhibitors of NF-kB signaling (BMS345541, IKK16, IMD0354, Takinib) were analyzed. […] Mortality was then monitored regularly over a period of seven days. […]

Rhodnius prolixus = conditions: cited from earlier work

Structure (SMILES): Cc1ccc2nc(NCCN)c3ncc(C)n3c2c1 [BMS345541, N1-(1,8-dimethylimidazo[1,2-a]quinoxalin-4-yl)ethane-1,2-diamine]
- effect on mortality during P. entomophila infection (Cimex lectularius [1]): little to no effect
- growth of B. thuringiensis israelensis relative to DMSO control (OD600) [2]: did not affect the growth
- growth of P. entomophila relative to DMSO control (OD600) (Pseudomonas entomophila): did not affect the growth
- effect on mortality during infection with B. thuringiensis (Cimex lectularius [3]): little to no effect

Structure (SMILES): CCCn1/c(=N/C(=O)c2cccc(C(N)=O)c2)[nH]c2ccccc21 [Takinib, 3-N-(1-propylbenzimidazol-2-yl)benzene-1,3-dicarboxamide]
- effect on mortality during P. entomophila infection (Cimex lectularius [1]): little to no effect
- growth of B. thuringiensis israelensis relative to DMSO control (OD600) [2]: did not affect the growth
- growth of P. entomophila relative to DMSO control (OD600) (Pseudomonas entomophila): did not affect the growth
- effect on mortality during infection with B. thuringiensis (Cimex lectularius [3]): little to no effect

Structure (SMILES): O=C(c1ccc(Nc2nccc(-c3cc4ccccc4s3)n2)cc1)N1CCC(N2CCCC2)CC1 [IKK16, (4-((4-(Benzo[b]thiophen-2-yl)pyrimidin-2-yl)amino)phenyl)(4-(pyrrolidin-1-yl)piperidin-1-yl)methanone]
- effect on mortality during P. entomophila infection (Cimex lectularius [1]): significantly increased
- mortality at 10 µg/mL (Cimex lectularius [1]; 24 h, read-out: mortality at day 1): 74.3%
- mortality at 10 µg/mL (Cimex lectularius [1]; 48 h, read-out: mortality at day 2): 80%
- mortality at 10 µg/mL (Cimex lectularius [1]; 72 h, read-out: mortality at day 3): 82.9%
- growth of B. thuringiensis israelensis relative to DMSO control (OD600) [2]: inhibited the growth
- effect on tolerance (mortality with lower bacterial loads) in vivo (Cimex lectularius [4]): did not affect tolerance
- P. entomophila load in live bed bugs versus live counterparts not treated with the inhibitor (Cimex lectularius [4]; ANOVA p=0.021): higher loads
- growth of P. entomophila relative to DMSO control (OD600) (Pseudomonas entomophila): did not affect the growth

Structure (SMILES): O=C(Nc1cc(C(F)(F)F)cc(C(F)(F)F)c1)c1cc(Cl)ccc1O [IMD0354, N-(3,5-bis(trifluoromethyl)phenyl)-5-chloro-2-hydroxybenzamide]
- growth of B. thuringiensis israelensis relative to DMSO control (OD600) [2]: inhibited the growth
- direct toxicity to bed bugs (mortality relative to DMSO controls) (Cimex lectularius [5]): not directly toxic
- expression of antimicrobial peptides (Rhodnius prolixus): suppressed expression
- mortality during both bacterial and parasitic infections (Rhodnius prolixus): increased mortality
- growth of P. entomophila relative to DMSO control (OD600) (Pseudomonas entomophila): inhibited the growth
